Assay results from PubChem BioAssay (NCI).
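Grown in 96-well plates, cells were treated for 48 hours with each compound at five concentrations. Insufficient inhibition: endpoint recorded as highest concentration tested. The concentration for 50% growth inhibition is given as GI50. TGI is the concentration that stops growth completely.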

Assays:
Experiment in all cases: NCI-60 cell line screen, 48 h
786-0 renal = system: 786-0 renal
A498 renal = system: A498 renal
A549 NSCLC = system: A549 NSCLC
ACHN renal = system: ACHN renal
BT-549 breast = system: BT-549 breast
CAKI-1 renal = system: CAKI-1 renal
CCRF-CEM leukemia = system: CCRF-CEM leukemia
COLO 205 colon = system: COLO 205 colon
DU-145 prostate = system: DU-145 prostate
EKVX NSCLC = system: EKVX NSCLC
HCC-2998 colon = system: HCC-2998 colon
HCT-116 colon = system: HCT-116 colon
HCT-15 colon = system: HCT-15 colon
HL-60(TB) leukemia = system: HL-60(TB) leukemia
HOP-62 NSCLC = system: HOP-62 NSCLC
HOP-92 NSCLC = system: HOP-92 NSCLC
HS 578T breast = system: HS 578T breast
HT29 colon = system: HT29 colon
IGROV1 ovarian = system: IGROV1 ovarian
K-562 leukemia = system: K-562 leukemia
KM12 colon = system: KM12 colon
LOX IMVI melanoma = system: LOX IMVI melanoma
M14 melanoma = system: M14 melanoma
MALME-3M melanoma = system: MALME-3M melanoma
MCF7 breast = system: MCF7 breast
MDA-MB-231 breast = system: MDA-MB-231 breast
MDA-MB-435 = system: MDA-MB-435
MOLT-4 leukemia = system: MOLT-4 leukemia
NCI-H226 lung = system: NCI-H226 lung

Which results are given for O=C1NC(=O)c2c1c1c3ccccc3ccc1c1[nH]c3ccccc3c21?
GI50 (786-0 renal): 1200 nM; TGI (786-0 renal): 16600 nM; GI50 (A498 renal): 491 nM; TGI (A498 renal): 2710 nM; GI50 (A549 NSCLC): 971 nM; TGI (A549 NSCLC): > 100000 nM; GI50 (ACHN renal): 336 nM; TGI (ACHN renal): 13200 nM; GI50 (BT-549 breast): 279 nM; TGI (BT-549 breast): 2330 nM; GI50 (CAKI-1 renal): 228 nM; TGI (CAKI-1 renal): 11700 nM; GI50 (CCRF-CEM leukemia): 457 nM; TGI (CCRF-CEM leukemia): > 68700 nM; GI50 (COLO 205 colon): 1300 nM; TGI (COLO 205 colon): > 100000 nM; GI50 (DU-145 prostate): 960 nM; TGI (DU-145 prostate): > 100000 nM; GI50 (EKVX NSCLC): 2040 nM; TGI (EKVX NSCLC): > 58400 nM; GI50 (HCC-2998 colon): 7650 nM; TGI (HCC-2998 colon): > 100000 nM; GI50 (HCT-116 colon): 852 nM; TGI (HCT-116 colon): > 100000 nM; GI50 (HCT-15 colon): 593 nM; TGI (HCT-15 colon): > 100000 nM; GI50 (HL-60(TB) leukemia): 233 nM; TGI (HL-60(TB) leukemia): > 100000 nM; GI50 (HOP-62 NSCLC): 925 nM; TGI (HOP-62 NSCLC): 17600 nM; GI50 (HOP-92 NSCLC): 857 nM; TGI (HOP-92 NSCLC): 7420 nM; GI50 (HS 578T breast): 1080 nM; TGI (HS 578T breast): > 31500 nM; GI50 (HT29 colon): 631 nM; TGI (HT29 colon): > 91100 nM; GI50 (IGROV1 ovarian): 529 nM; TGI (IGROV1 ovarian): > 56200 nM; GI50 (K-562 leukemia): 543 nM; TGI (K-562 leukemia): > 91100 nM; GI50 (KM12 colon): 115 nM; TGI (KM12 colon): > 100000 nM; GI50 (LOX IMVI melanoma): 1380 nM; TGI (LOX IMVI melanoma): > 100000 nM; GI50 (M14 melanoma): 322 nM; TGI (M14 melanoma): > 100000 nM; GI50 (MALME-3M melanoma): 207 nM; TGI (MALME-3M melanoma): 6010 nM; GI50 (MCF7 breast): 327 nM; TGI (MCF7 breast): > 100000 nM; GI50 (MDA-MB-231 breast): 1150 nM; TGI (MDA-MB-231 breast): > 100000 nM; GI50 (MDA-MB-435): 247 nM; TGI (MDA-MB-435): > 100000 nM; GI50 (MOLT-4 leukemia): 444 nM; TGI (MOLT-4 leukemia): 7480 nM; GI50 (NCI-H226 lung): 641 nM
